# Laboratory results taken from patent publication US6737383B1, “Herbicidal oxadiazolidines” (priority 1999, dated 2004).
# Tests used:
# bedstraw = assay: Test B pre/postemergence bedstraw; format: in vivo, Galium aparine
# How it was run: (§1)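 Test chemicals in a non-phytotoxic solvent mixture with surfactant were sprayed preemergence onto planted seeds and postemergence onto plants 2 to 18 cm tall (1- to 4-leaf stage). After twelve to sixteen days in a greenhouse, injury was visually rated against untreated controls from 0 (no effect) to 10 (complete control).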
# blackgrass = assay: Test B pre/postemergence blackgrass; format: in vivo, Alopecurus myosuroides
# How it was run: as §1
# giant foxtail = assay: Test B pre/postemergence giant foxtail; format: in vivo, Setaria faberii
# How it was run: as §1
# morningglory = assay: Test B pre/postemergence morningglory; format: in vivo, Ipomoea hederacea
# How it was run: as §1
# pigweed = assay: Test B pre/postemergence pigweed; format: in vivo, Amaranthus retroflexus
# How it was run: as §1
# rape = assay: Test B pre/postemergence rape; format: in vivo, Brassica napus
# How it was run: as §1
# soybean = assay: Test B pre/postemergence soybean; format: in vivo, Glycine max
# How it was run: as §1
# sugar beet = assay: Test B pre/postemergence sugar beet; format: in vivo, Beta vulgaris
# How it was run: as §1
# velvetleaf = assay: Test B pre/postemergence velvetleaf; format: in vivo, Abutilon theophrasti
# How it was run: as §1
# wheat = assay: Test B pre/postemergence wheat; format: in vivo, Triticum aestivum
# How it was run: as §1
# wild oat = assay: Test B pre/postemergence wild oat; format: in vivo, Avena fatua
# How it was run: as §1
# purple nutsedge = assay: Test B pre/postemergence purple nutsedge; format: in vivo, Cyperus rotundus
# How it was run: as §1
# [1] = Postemergence, Rate 125 g/ha, scale of 0 to 10 where 0 is no effect and 10 is complete control
# [2] = Preemergence, Rate 62 g/ha, scale of 0 to 10 where 0 is no effect and 10 is complete control
# [3] = Preemergence, Rate 125 g/ha, 0 is no effect, 10 is complete control
# [4] = Preemergence, Rate 500 g/ha, scale 0 to 10 (0 no effect, 10 complete control)
# [5] = Rate 62 g/ha, Postemergence, scale of 0 to 10 where 0 is no effect and 10 is complete control
# [6] = Rate 250 g/ha, Postemergence, scale 0 to 10, 0 is no effect, 10 is complete control
# [7] = Preemergence, Rate 250 g/ha, scale 0 to 10, 0 is no effect, 10 is complete control
# [8] = Rate 500 g/ha, Postemergence, scale 0 to 10
compound,measurement,setting,value
CC(C)N(C(=O)n1oc(=O)n([C@@H](C)c2ccccc2)c1=O)c1ccc(Cl)cc1 [Compound 174],Bedstraw plant response rating,bedstraw; [1],4
same,Bedstraw plant response rating,bedstraw; [2],0
same,Bedstraw plant response rating (0 to 10 scale),bedstraw; [3],0
same,Bedstraw plant response rating,bedstraw; [4],3
same,Bedstraw plant response rating,bedstraw; [5],0
same,"Plant response rating, Bedstraw",bedstraw; [6],6
same,Blackgrass plant response rating,blackgrass; [1],0
same,Blackgrass plant response rating,blackgrass; [2],0
same,Blackgrass plant response rating (0 to 10 scale),blackgrass; [3],2
same,Blackgrass plant response rating,blackgrass; [7],2
same,Blackgrass plant response rating,blackgrass; [4],2
same,Blackgrass plant response rating,blackgrass; [5],0
same,"Plant response rating, Blackgrass",blackgrass; [6],0
same,Blackgrass plant response rating,blackgrass; [8],3
same,Giant foxtail plant response rating,giant foxtail; [1],0
same,Giant foxtail plant response rating,giant foxtail; [2],8
same,Giant foxtail plant response rating (0 to 10 scale),giant foxtail; [3],9
same,Giant foxtail plant response rating,giant foxtail; [7],10
same,Giant foxtail plant response rating,giant foxtail; [4],10
same,Giant foxtail plant response rating,giant foxtail; [5],0
same,"Plant response rating, Giant foxtail",giant foxtail; [6],0
same,Giant foxtail plant response rating,giant foxtail; [8],1
same,Morningglory plant response rating,morningglory; [1],5
same,Morningglory plant response rating,morningglory; [2],0
same,Morningglory plant response rating (0 to 10 scale),morningglory; [3],0
same,Morningglory plant response rating,morningglory; [7],0
same,Morningglory plant response rating,morningglory; [4],0
same,Morningglory plant response rating,morningglory; [5],3
same,"Plant response rating, Morningglory",morningglory; [6],5
same,Morningglory plant response rating,morningglory; [8],5
same,Redroot pigweed plant response rating,pigweed; [1],4
same,Redroot pigweed plant response rating,pigweed; [2],0
same,Redroot pigweed plant response rating (0 to 10 scale),pigweed; [3],6
same,Redroot pigweed plant response rating,pigweed; [7],8
same,Redroot pigweed plant response rating,pigweed; [4],9
same,Redroot pigweed plant response rating,pigweed; [5],0
same,"Plant response rating, Redroot pigweed",pigweed; [6],6
same,Redroot pigweed plant response rating,pigweed; [8],6
same,Rape plant response rating,rape; [1],0
same,Rape plant response rating,rape; [2],0
same,Rape plant response rating (0 to 10 scale),rape; [3],0
same,Rape plant response rating,rape; [7],0
same,Rape plant response rating,rape; [4],4
same,Rape plant response rating,rape; [5],0
same,"Plant response rating, Rape",rape; [6],0
same,Rape plant response rating,rape; [8],2
same,Soybean plant response rating,soybean; [1],2
same,Soybean plant response rating,soybean; [2],0
same,Soybean plant response rating (0 to 10 scale),soybean; [3],0
same,Soybean plant response rating,soybean; [7],0
same,Soybean plant response rating,soybean; [4],0
same,Soybean plant response rating,soybean; [5],2
same,"Plant response rating, Soybean",soybean; [6],2
same,Soybean plant response rating,soybean; [8],4
same,Sugarbeets plant response rating,sugar beet; [1],0
same,Sugarbeets plant response rating,sugar beet; [2],3
same,Sugarbeets plant response rating (0 to 10 scale),sugar beet; [3],3
same,Sugarbeets plant response rating,sugar beet; [7],6
same,Sugarbeets plant response rating,sugar beet; [4],6
same,Sugarbeets plant response rating,sugar beet; [5],0
same,"Plant response rating, Sugarbeets",sugar beet; [6],6
same,Sugarbeets plant response rating,sugar beet; [8],6
same,Velvetleaf plant response rating,velvetleaf; [2],0
same,Velvetleaf plant response rating (0 to 10 scale),velvetleaf; [3],0
same,Velvetleaf plant response rating,velvetleaf; [7],0
same,Velvetleaf plant response rating,velvetleaf; [4],0
same,"Plant response rating, Velvetleaf",velvetleaf; [6],0
same,Velvetleaf plant response rating,velvetleaf; [8],0
same,Wheat plant response rating,wheat; [2],0
same,Wheat plant response rating (0 to 10 scale),wheat; [3],0
same,Wheat plant response rating,wheat; [7],0
same,Wheat plant response rating,wheat; [4],0
same,"Plant response rating, Wheat",wheat; [6],0
same,Wheat plant response rating,wheat; [8],0
same,Wild oats plant response rating,wild oat; [2],0
same,Wild oats plant response rating (0 to 10 scale),wild oat; [3],0
same,Wild oats plant response rating,wild oat; [7],0
same,Wild oats plant response rating,wild oat; [4],0
same,"Plant response rating, Wild oats",wild oat; [6],0
same,Wild oats plant response rating,wild oat; [8],0
same,Nutsedge plant response rating,purple nutsedge; [1],0
same,Nutsedge plant response rating,purple nutsedge; [2],0
same,Nutsedge plant response rating (0 to 10 scale),purple nutsedge; [3],0
same,Nutsedge plant response rating,purple nutsedge; [5],0
same,"Plant response rating, Nutsedge",purple nutsedge; [6],0
same,Nutsedge plant response rating,purple nutsedge; [8],0
